Data reported in PubChem BioAssay AID248 (DTP/NCI, 2004).
Values joined by “and” are separate entries in the source; they are usually repeats but may differ in a detail not shown here. Equal entries are not always repeated. Inconclusive results and toxic doses are left out. Rule as the data show it: active = T/C of 150% or more; inactive = T/C below 125%.

Test system: L1210 leukemia ip in BDF1 mice, survival T/C
Experiment: NCI In Vivo Anticancer Drug Screen. Data for tumor model L1210 Leukemia (intraperitoneal) in B6D2F1 (BDF1) mice
Conditions: endpoint: mean survival time, higher = longer survival
Summary of the method: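 In this screen, tumor-bearing mice given compound are compared to those given vehicle, and their survival values are reported as a treated-to-control quotient.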

[1] = dose: 100.0 mg/kg/injection, schedule: Q01DX001 (ip), vehicle: carboxymethylcellulose (CMC)
[2] = dose: 200.0 mg/kg/injection, schedule: Q01DX001 (ip), vehicle: carboxymethylcellulose (CMC)
[3] = dose: 400.0 mg/kg/injection, schedule: Q01DX001 (ip), vehicle: carboxymethylcellulose (CMC)
[4] = dose: 100.0 mg/kg/injection, schedule: Q01DX009 (ip), vehicle: Klucel (hydroxypropylcellulose) (HPC)
[5] = dose: 100.0 mg/kg/injection, schedule: Q04DX003 (ip), vehicle: Klucel (hydroxypropylcellulose) (HPC)
[6] = dose: 200.0 mg/kg/injection, schedule: Q01DX009 (ip), vehicle: Klucel (hydroxypropylcellulose) (HPC)
[7] = dose: 200.0 mg/kg/injection, schedule: Q04DX003 (ip), vehicle: Klucel (hydroxypropylcellulose) (HPC)
[8] = dose: 400.0 mg/kg/injection, schedule: Q01DX009 (ip), vehicle: Klucel (hydroxypropylcellulose) (HPC)
[9] = dose: 400.0 mg/kg/injection, schedule: Q04DX003 (ip), vehicle: Klucel (hydroxypropylcellulose) (HPC)
[10] = dose: 50.0 mg/kg/injection, schedule: Q01DX009 (ip), vehicle: Klucel (hydroxypropylcellulose) (HPC)
[11] = dose: 50.0 mg/kg/injection, schedule: Q01DX009 (ip), vehicle: saline with Tween-80
[12] = dose: 100.0 mg/kg/injection, schedule: Q01DX009 (ip), vehicle: saline with Tween-80
[13] = dose: 100.0 mg/kg/injection, schedule: Q01DX001 (ip), vehicle: saline
[14] = dose: 200.0 mg/kg/injection, schedule: Q01DX001 (ip), vehicle: saline
[15] = dose: 400.0 mg/kg/injection, schedule: Q01DX001 (ip), vehicle: saline

Measured: T/C

Nc1cccc(C(=O)c2cccc(N)c2)c1
inactive: [1] 96 % of control | [2] 94 % of control | [3] 88 % of control

CC1c2c(-c3ccccc3)oc(-c3ccccc3)c2C(C)C(Br)C1Br (centres undefined)
inactive: [4] 121 % of control | [5] 103 % of control | [6] 104 % of control | [7] 90 % of control | [8] 109 % of control | [9] 92 % of control

O=C(O)C(Oc1ccccc1O)C(=O)O
inactive: dose: 100.0 mg/kg/injection, schedule: Q04DX003 (ip), vehicle: saline 95 % of control | dose: 200.0 mg/kg/injection, schedule: Q04DX003 (ip), vehicle: saline 93 % of control

BrC1=C(c2ccccc2)C2CCCCC2C1(Br)c1ccccc1 (centres undefined)
inactive: [4] 103 % of control | [6] 105 % of control | [8] 114 % of control

NCC(=O)c1cccc2ccc[n+]([O-])c12
inactive: [10] 97 % of control | [4] 97 % of control | [5] 95 % of control | [7] 98 % of control

C/C(Cc1cc(C)[nH]c(=S)n1)=N\NC(N)=O
inactive: [11] 92 % of control | [12] 92 % of control

Cc1c2c(ccc3ccccc32)cc2cccc[n+]12
inactive: dose: 2.0 mg/kg/injection, schedule: Q01DX Z (ip), vehicle: saline 101 % of control | dose: 4.0 mg/kg/injection, schedule: Q01DX Z (ip), vehicle: saline 116 % of control

CC(C)(O)C(=O)NC/C=C/c1ccccc1
inactive: dose: 25.0 mg/kg/injection, schedule: Q01DX009 (ip), vehicle: saline with Tween-80 93 % of control | [11] 93 % of control | [12] 93 % of control

CCOC(=O)C(=O)Nc1cc(C)ccc1C
inactive: dose: 100.0 mg/kg/injection, schedule: Q04DX003 (ip), vehicle: saline with Tween-80 93 % of control | dose: 200.0 mg/kg/injection, schedule: Q04DX003 (ip), vehicle: saline with Tween-80 95 % of control

COC1CCC(/C=C(\C#N)C2CCC(C)CC2)CC1 (centres undefined)
inactive: dose: 100.0 mg/kg/injection, schedule: Q04DX002 (ip), vehicle: saline with Tween-80 94 % of control | dose: 200.0 mg/kg/injection, schedule: Q04DX002 (ip), vehicle: saline with Tween-80 97 % of control | dose: 400.0 mg/kg/injection, schedule: Q04DX002 (ip), vehicle: saline with Tween-80 94 % of control

Cc1ccc(S(=O)(=O)[O][Sn-]([CH2]c2ccccc2)([CH2]c2ccccc2)[CH2]c2ccccc2)cc1
inactive: dose: 50.0 mg/kg/injection, schedule: Q01DX009 (ip), vehicle: olive oil, sesame oil, peanut oil 97 % of control | dose: 100.0 mg/kg/injection, schedule: Q01DX009 (ip), vehicle: olive oil, sesame oil, peanut oil 92 % of control | dose: 100.0 mg/kg/injection, schedule: Q04DX002 (ip), vehicle: alcohol 97 % of control | dose: 200.0 mg/kg/injection, schedule: Q04DX002 (ip), vehicle: alcohol 90 % of control

Nc1nc2ncnc(N)c2nc1-c1ccc(N(CCCl)CCCl)cc1
inactive: [13] 98 % of control | [14] 95 % of control | [15] 102 % of control

O=c1[nH]cnc2nc(Br)[nH]c12
inactive: [13] 104 % of control | [14] 95 % of control | [15] 98 % of control

Cc1ccc(NC(=S)NNC(=S)NNc2ccccc2)cc1
inactive: dose: 100.0 mg/kg/injection, schedule: Q04DX002 (ip), vehicle: Klucel (hydroxypropylcellulose) (HPC) 86 % of control | dose: 200.0 mg/kg/injection, schedule: Q04DX002 (ip), vehicle: Klucel (hydroxypropylcellulose) (HPC) 94 % of control

c1cc2c3c(c1)-c1nc4ccccc4cc1CN3CCC2
inactive: [12] 94 % of control | dose: 200.0 mg/kg/injection, schedule: Q01DX009 (ip), vehicle: saline with Tween-80 105 % of control | dose: 400.0 mg/kg/injection, schedule: Q01DX009 (ip), vehicle: saline with Tween-80 96 % of control

CC(=O)c1ccc2[nH]c(C)cc(=O)c2c1
inactive: [13] 94 % of control | [14] 107 % of control | [15] 96 % of control

CC1CCC/C(=N/Nc2ccc3ccccc3n2)C1 (centres undefined)
inactive: dose: 75.0 mg/kg/injection, schedule: Q01DX001 (ip), vehicle: saline 113 % of control

CC(=O)C1C=NC(C)(C)C(C)(C)N=CC(C(C)=O)C(C)=NCCCN=C1C.[Ni] (centres undefined)
inactive: dose: 12.5 mg/kg/injection, schedule: Q04DX002 (ip), vehicle: saline 97 % of control | dose: 25.0 mg/kg/injection, schedule: Q04DX002 (ip), vehicle: saline 97 % of control

O=C(NC1CCCCC1)Oc1cc(CCl)cc(CCl)c1
inactive: [10] 112 % of control | [4] 112 % of control

Cc1ccc(S(=O)(=O)N2CC(O)C(O)C2Cn2cnc3c(N)ncnc32)cc1 (centres undefined)
inactive: dose: 50.0 mg/kg/injection, schedule: Q04DX002 (ip), vehicle: saline 96 % of control | dose: 100.0 mg/kg/injection, schedule: Q04DX002 (ip), vehicle: saline 102 % of control | dose: 200.0 mg/kg/injection, schedule: Q04DX002 (ip), vehicle: saline 102 % of control

COc1cc(C2c3c(cc(OC)c(O)c3OC)C=C(C(=O)O)C2CO)cc(OC)c1O (centres undefined)
inactive: dose: 50.0 mg/kg/injection, schedule: Q01DX001 (ip), vehicle: carboxymethylcellulose (CMC) 94 % of control | [1] 102 % of control | [2] 96 % of control | [3] 91 % of control

O=C(CF)NC1C(O)OC(CO)C(O)C1O (centres undefined)
inactive: [13] 107 % of control | [14] 112 % of control

CN=C(NN)NCCO
inactive: dose: 175.0 mg/kg/injection, schedule: Q01DX001 (ip), vehicle: saline 96 % of control | dose: 265.0 mg/kg/injection, schedule: Q01DX001 (ip), vehicle: saline 96 % of control | [15] 110 % of control | dose: 600.0 mg/kg/injection, schedule: Q01DX001 (ip), vehicle: saline 98 % of control

FC(F)(F)c1cc(Cl)ccc1Cl
inactive: dose: 80.0 mg/kg/injection, schedule: Q01DX009 (ip), vehicle: Klucel (hydroxypropylcellulose) (HPC) 100 % of control | [5] 101 % of control and 106 % of control | dose: 160.0 mg/kg/injection, schedule: Q01DX009 (ip), vehicle: Klucel (hydroxypropylcellulose) (HPC) 102 % of control | [7] 92 % of control and 104 % of control | dose: 320.0 mg/kg/injection, schedule: Q01DX009 (ip), vehicle: Klucel (hydroxypropylcellulose) (HPC) 111 % of control | [9] 99 % of control and 102 % of control

COc1nc(N/N=C/c2ccccc2O)ccc1[N+](=O)[O-]
inactive: [5] 93 % of control | [7] 93 % of control | [9] 95 % of control

O=C(c1ccc(-c2ccccc2)cc1)C1CC1c1ccccc1 (centres undefined)
inactive: dose: 100.0 mg/kg/injection, schedule: Q01DX009 (ip), vehicle: saline sonified 97 % of control | dose: 200.0 mg/kg/injection, schedule: Q01DX009 (ip), vehicle: saline sonified 96 % of control | dose: 400.0 mg/kg/injection, schedule: Q01DX009 (ip), vehicle: saline sonified 91 % of control

Cc1ccc(C(=O)CCCN2CCOCC2)c(C)c1
inactive: dose: 5.0 mg/kg/injection, schedule: Q01DX001 (ip), vehicle: saline 105 % of control | dose: 10.0 mg/kg/injection, schedule: Q01DX001 (ip), vehicle: saline 97 % of control | dose: 20.0 mg/kg/injection, schedule: Q01DX001 (ip), vehicle: saline 94 % of control | dose: 40.0 mg/kg/injection, schedule: Q01DX001 (ip), vehicle: saline 108 % of control | dose: 80.0 mg/kg/injection, schedule: Q01DX001 (ip), vehicle: saline 100 % of control | [14] 95 % of control
